From ChEMBL document CHEMBL3817743, “Potent and Selective Human Neuronal Nitric Oxide Synthase Inhibition by Optimization of the 2-Aminopyridine-Based Scaffold with a Pyridine Linker” (J Med Chem, 2016)

Experiments:
[1] = biological target: Nitric oxide synthase 1 (Rattus norvegicus, UniProt P29476); experiment: Inhibition of rat recombinant nNOS expressed in Escherichia coli using L-arginine as substrate assessed as reduction in NO production measured for 6 mins in presence of tetrahydrobiopterin by hemoglobin capture assay
[2] = biological target: T1, Nitric oxide synthase, inducible (Mus musculus, UniProt P29477); experiment: Inhibition of recombinant mouse macrophage iNOS expressed in Escherichia coli using L-arginine as substrate assessed as reduction in NO production measured for 6 mins by hemoglobin capture assay
T1 sequence (P29477 whole entry): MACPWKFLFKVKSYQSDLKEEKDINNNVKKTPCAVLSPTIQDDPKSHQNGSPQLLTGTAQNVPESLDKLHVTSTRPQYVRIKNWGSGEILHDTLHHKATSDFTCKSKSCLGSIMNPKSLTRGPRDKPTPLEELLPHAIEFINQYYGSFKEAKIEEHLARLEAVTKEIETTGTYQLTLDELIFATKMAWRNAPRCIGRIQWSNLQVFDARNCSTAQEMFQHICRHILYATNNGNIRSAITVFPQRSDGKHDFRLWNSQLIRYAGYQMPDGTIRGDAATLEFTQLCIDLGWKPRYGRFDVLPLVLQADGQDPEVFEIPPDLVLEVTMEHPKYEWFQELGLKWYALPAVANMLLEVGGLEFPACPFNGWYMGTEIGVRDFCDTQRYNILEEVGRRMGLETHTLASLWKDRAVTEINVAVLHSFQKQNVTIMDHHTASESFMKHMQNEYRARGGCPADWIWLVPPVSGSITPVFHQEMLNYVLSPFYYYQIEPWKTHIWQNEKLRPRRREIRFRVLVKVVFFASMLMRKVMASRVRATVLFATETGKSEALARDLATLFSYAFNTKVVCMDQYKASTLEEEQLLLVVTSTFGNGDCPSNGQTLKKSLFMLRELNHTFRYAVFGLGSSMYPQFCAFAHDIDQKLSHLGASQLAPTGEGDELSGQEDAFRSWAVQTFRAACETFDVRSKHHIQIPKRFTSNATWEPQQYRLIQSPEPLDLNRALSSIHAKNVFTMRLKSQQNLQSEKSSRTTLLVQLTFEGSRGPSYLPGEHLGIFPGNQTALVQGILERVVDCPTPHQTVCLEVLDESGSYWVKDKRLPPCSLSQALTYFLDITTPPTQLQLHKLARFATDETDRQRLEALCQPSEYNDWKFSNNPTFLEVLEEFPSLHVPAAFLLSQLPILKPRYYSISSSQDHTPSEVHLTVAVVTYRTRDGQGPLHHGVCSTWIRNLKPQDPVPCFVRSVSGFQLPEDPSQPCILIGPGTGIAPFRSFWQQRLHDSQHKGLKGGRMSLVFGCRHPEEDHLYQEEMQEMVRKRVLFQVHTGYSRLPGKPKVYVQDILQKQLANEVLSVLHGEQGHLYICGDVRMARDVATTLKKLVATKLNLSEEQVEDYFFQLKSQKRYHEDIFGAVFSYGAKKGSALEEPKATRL

[3] = biological target: T2, Cytochrome P450 1A2 (Homo sapiens, UniProt P05177); experiment: Inhibition of CYP1A2 in human liver microsomes using phenacetin as substrate at 10 uM preincubated for 5 mins followed by NADPH addition measured after 10 mins by LC-MS/MS analysis relative to control; format: ADME
T2 sequence (P05177 whole entry): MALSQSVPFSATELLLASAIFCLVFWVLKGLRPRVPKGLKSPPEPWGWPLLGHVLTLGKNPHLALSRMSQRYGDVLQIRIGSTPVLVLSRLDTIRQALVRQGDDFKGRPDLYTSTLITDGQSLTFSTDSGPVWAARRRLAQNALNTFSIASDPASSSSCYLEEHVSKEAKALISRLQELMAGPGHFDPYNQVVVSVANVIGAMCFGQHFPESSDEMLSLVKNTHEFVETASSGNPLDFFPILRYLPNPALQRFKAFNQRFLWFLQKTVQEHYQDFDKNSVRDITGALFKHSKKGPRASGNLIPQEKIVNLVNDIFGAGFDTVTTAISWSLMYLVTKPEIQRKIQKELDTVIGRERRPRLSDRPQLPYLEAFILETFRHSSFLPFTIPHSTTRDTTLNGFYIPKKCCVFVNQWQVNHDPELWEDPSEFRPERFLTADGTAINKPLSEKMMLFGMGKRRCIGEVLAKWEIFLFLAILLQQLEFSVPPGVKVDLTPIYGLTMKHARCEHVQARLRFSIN

[4] = biological target: Cytochrome P450 2C9 (Homo sapiens, UniProt P11712); experiment: Inhibition of CYP2C9 in human liver microsomes using diclofenac as substrate at 10 uM preincubated for 5 mins followed by NADPH addition measured after 10 mins by LC-MS/MS analysis relative to control; format: ADME
[5] = biological target: Cytochrome P450 2D6 (Homo sapiens, UniProt P10635); experiment: Inhibition of CYP2D6 in human liver microsomes using bufuralol as substrate at 10 uM preincubated for 5 mins followed by NADPH addition measured after 10 mins by LC-MS/MS analysis relative to control; format: ADME
[6] = Drug metabolism in human liver microsomes at 1 uM incubated for 60 mins by LC-MS/MS analysis; format: ADME; conditions: read-out: Drug metabolism
[7] = Drug metabolism in human liver microsomes at 1 uM preincubated for 5 mins followed by NADPH addition measured after […] mins by LC-MS/MS analysis; format: ADME; conditions: read-out: Drug metabolism
[8] = Permeability from apical to basolateral side in human Caco2 cells at 10 uM after 2 hrs by LC-MS/MS analysis; format: ADME, cell-based; conditions: caco-2, 2 h

Chain of Nitric oxide synthase 1 (P29476 whole entry): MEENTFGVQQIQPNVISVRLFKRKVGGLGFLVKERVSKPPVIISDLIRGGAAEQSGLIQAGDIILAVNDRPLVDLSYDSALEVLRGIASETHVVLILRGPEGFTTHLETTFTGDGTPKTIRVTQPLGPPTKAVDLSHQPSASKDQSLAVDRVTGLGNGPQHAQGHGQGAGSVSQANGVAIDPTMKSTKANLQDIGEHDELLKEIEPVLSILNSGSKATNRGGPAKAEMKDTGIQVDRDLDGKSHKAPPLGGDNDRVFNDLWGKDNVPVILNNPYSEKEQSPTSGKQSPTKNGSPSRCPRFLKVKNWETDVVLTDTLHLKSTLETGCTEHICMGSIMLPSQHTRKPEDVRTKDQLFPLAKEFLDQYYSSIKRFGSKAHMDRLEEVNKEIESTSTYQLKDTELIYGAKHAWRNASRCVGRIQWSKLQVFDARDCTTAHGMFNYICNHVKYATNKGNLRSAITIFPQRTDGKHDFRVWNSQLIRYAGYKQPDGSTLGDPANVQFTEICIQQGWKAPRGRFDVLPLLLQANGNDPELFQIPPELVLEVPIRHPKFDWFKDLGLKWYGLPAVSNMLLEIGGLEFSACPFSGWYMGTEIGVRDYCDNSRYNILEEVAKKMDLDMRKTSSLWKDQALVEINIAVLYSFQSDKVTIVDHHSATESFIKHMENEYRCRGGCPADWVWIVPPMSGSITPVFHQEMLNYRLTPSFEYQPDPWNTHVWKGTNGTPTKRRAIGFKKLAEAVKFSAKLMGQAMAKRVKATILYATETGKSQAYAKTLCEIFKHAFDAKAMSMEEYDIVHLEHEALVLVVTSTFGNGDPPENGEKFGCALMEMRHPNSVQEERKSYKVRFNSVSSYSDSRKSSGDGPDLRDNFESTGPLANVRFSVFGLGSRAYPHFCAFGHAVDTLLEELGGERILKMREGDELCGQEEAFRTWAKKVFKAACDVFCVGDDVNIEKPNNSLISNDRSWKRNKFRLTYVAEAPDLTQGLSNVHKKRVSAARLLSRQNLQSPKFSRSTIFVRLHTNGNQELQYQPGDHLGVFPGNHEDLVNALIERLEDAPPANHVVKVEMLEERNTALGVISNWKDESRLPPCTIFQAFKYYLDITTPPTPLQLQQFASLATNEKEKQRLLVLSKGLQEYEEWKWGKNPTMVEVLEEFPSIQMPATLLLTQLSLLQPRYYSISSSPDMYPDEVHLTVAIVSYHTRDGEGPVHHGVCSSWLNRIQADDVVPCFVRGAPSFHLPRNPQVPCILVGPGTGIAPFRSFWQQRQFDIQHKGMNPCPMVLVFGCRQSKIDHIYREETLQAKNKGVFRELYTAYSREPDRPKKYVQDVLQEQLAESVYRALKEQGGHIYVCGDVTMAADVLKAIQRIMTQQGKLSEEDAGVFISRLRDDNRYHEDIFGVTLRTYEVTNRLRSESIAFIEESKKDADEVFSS
Chain of Cytochrome P450 2C9 (P11712 whole entry): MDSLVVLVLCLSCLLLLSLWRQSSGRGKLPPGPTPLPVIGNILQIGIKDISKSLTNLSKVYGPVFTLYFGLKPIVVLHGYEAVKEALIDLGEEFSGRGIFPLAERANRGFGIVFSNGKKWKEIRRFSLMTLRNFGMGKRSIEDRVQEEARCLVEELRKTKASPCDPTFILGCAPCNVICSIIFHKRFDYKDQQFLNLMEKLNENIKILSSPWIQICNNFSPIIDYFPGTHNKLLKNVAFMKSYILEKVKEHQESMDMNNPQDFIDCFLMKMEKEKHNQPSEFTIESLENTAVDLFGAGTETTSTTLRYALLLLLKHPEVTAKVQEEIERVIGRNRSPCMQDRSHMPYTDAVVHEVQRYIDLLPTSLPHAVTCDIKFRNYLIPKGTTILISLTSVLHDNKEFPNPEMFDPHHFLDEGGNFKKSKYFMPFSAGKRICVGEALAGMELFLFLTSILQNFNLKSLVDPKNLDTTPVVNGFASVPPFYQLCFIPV
Chain of Cytochrome P450 2D6 (P10635 whole entry): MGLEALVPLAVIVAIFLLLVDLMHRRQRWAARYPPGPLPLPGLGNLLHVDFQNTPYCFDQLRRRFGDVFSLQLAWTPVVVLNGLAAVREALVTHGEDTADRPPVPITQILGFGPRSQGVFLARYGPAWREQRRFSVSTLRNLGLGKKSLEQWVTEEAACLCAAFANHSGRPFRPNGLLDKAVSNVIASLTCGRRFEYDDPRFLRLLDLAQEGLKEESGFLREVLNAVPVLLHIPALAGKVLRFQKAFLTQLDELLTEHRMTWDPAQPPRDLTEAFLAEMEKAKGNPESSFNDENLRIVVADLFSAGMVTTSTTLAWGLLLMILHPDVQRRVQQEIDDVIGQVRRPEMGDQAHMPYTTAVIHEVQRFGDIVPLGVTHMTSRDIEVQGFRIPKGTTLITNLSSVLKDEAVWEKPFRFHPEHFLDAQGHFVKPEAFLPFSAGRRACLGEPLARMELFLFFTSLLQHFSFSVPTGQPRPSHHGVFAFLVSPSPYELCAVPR

SMILES: Cc1cc(N)nc(CCc2cncc(N3CCCCC3)c2)c1
- Ki [1]: 1.87 µM
- Ki [2]: 5.64 µM

SMILES: CNCCCc1cncc(CCc2cc(C)cc(N)n2)c1
- inhibition (INH) [3]: 9%
- inhibition (INH) [4]: 0%
- inhibition (INH) [5]: 6%
- metabolised at 1 h, 1 µM [6]: 23%
- metabolised at […], 1 µM [7]: 23%
- permeability [8]: impermeable

SMILES: Cc1cc(N)nc(CCc2cccnc2)c1
- Ki [1]: 0.706 µM
- Ki [2]: 2.78 µM
